This passage reports IC50 results from ChEMBL document CHEMBL1201862, “PubChem BioAssay data set” (2004).

The IC50 is the concentration at which inhibition is half-maximal.

The assay concerns the target Envelope glycoprotein gp160 (Human immunodeficiency virus 1, UniProt Q6QLK5). The assay can be described thus: cell-free HIV fusion peptide-binding blockers – biochemical, uHTS, fluorescence dequenching, […] (AID 1986).

Activity calls are given as the source filed them. Rule as the data show it: actives have a measured IC50 and inactives only a lower limit.

Sequence of Envelope glycoprotein gp160 (Q6QLK5 whole entry, the tested form may be a part): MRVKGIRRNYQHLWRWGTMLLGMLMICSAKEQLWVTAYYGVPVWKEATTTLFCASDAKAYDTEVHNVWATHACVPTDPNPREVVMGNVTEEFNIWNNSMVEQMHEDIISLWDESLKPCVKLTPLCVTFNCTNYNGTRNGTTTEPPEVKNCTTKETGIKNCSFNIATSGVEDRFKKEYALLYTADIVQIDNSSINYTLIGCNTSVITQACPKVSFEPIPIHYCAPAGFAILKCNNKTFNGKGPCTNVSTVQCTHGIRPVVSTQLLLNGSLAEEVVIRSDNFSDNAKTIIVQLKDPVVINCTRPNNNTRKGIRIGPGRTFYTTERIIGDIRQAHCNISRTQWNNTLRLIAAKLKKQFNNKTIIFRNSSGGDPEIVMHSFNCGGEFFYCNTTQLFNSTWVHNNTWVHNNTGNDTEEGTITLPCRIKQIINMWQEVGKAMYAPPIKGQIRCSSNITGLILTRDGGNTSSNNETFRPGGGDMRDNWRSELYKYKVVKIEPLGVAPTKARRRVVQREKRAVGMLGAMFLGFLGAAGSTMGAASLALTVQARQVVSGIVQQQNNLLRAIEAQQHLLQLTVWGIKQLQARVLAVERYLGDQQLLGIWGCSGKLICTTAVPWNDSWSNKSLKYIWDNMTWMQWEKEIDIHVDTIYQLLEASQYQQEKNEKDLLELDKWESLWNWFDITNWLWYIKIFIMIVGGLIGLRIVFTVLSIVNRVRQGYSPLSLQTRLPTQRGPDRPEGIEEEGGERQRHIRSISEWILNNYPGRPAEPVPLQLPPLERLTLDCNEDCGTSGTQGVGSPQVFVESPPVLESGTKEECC

`O=C(N/N=C/c1ccc(-c2ccc(S(=O)(=O)Nc3ncccn3)cc2)o1)c1cc2ccccc2cc1O`: the IC50 is 5.36 µM (active).
